Assay results: PubChem BioAssay (NCI)
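48-hour exposure; five concentrations; linearly interpolated endpoints. Abbreviation: GI50, concentration required for 50% inhibition of growth. Definition used: TGI = concentration required for complete inhibition of growth.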

Key:
Test in all cases: inhibition of tumour cell growth, NCI panel, 48 h
MCF7 breast = test system: MCF7 breast
A498 renal = test system: A498 renal
786-0 renal = test system: 786-0 renal
SK-MEL-5 melanoma = test system: SK-MEL-5 melanoma
OVCAR-5 ovarian = test system: OVCAR-5 ovarian
SF-268 CNS = test system: SF-268 CNS
MDA-MB-231 breast = test system: MDA-MB-231 breast
NCI-H522 lung = test system: NCI-H522 lung
SR leukemia = test system: SR leukemia
BT-549 breast = test system: BT-549 breast
UACC-257 melanoma = test system: UACC-257 melanoma
CCRF-CEM leukemia = test system: CCRF-CEM leukemia
SNB-19 CNS = test system: SNB-19 CNS
HCT-116 colon = test system: HCT-116 colon
OVCAR-8 ovarian = test system: OVCAR-8 ovarian
MOLT-4 leukemia = test system: MOLT-4 leukemia
NCI-H460 lung = test system: NCI-H460 lung
T-47D breast = test system: T-47D breast
TK-10 renal = test system: TK-10 renal
OVCAR-3 ovarian = test system: OVCAR-3 ovarian
A549 NSCLC = test system: A549 NSCLC
MALME-3M melanoma = test system: MALME-3M melanoma
KM12 colon = test system: KM12 colon
RPMI-8226 leukemia = test system: RPMI-8226 leukemia
UO-31 renal = test system: UO-31 renal
ACHN renal = test system: ACHN renal
COLO 205 colon = test system: COLO 205 colon

Structure (SMILES): COc1ccc2[nH]c(O)c(N=Nc3nc(-c4ccc(Cl)cc4)cs3)c2c1
- GI50 (MCF7 breast): 2530 nM
- TGI (MCF7 breast): 16.7 µM
- GI50 (A498 renal): 2220 nM
- TGI (A498 renal): 4.94 µM
- GI50 (786-0 renal): 1600 nM
- TGI (786-0 renal): 3.09 µM
- GI50 (SK-MEL-5 melanoma): 4.1 µM
- TGI (SK-MEL-5 melanoma): 19.4 µM
- GI50 (OVCAR-5 ovarian): 3.09 µM
- TGI (OVCAR-5 ovarian): 17 µM
- GI50 (SF-268 CNS): 4.41 µM
- TGI (SF-268 CNS): > 100 µM
- GI50 (MDA-MB-231 breast): 2730 nM
- TGI (MDA-MB-231 breast): 8.19 µM
- GI50 (NCI-H522 lung): 2090 nM
- TGI (NCI-H522 lung): 6.38 µM
- GI50 (SR leukemia): 4.69 µM
- TGI (SR leukemia): > 100 µM
- GI50 (BT-549 breast): 3.21 µM
- TGI (BT-549 breast): 28.3 µM
- GI50 (UACC-257 melanoma): 6.52 µM
- TGI (UACC-257 melanoma): > 100 µM
- GI50 (CCRF-CEM leukemia): 4.1 µM
- TGI (CCRF-CEM leukemia): > 100 µM
- GI50 (SNB-19 CNS): 4.56 µM
- TGI (SNB-19 CNS): 38.3 µM
- GI50 (HCT-116 colon): 1880 nM
- TGI (HCT-116 colon): 3.75 µM
- GI50 (OVCAR-8 ovarian): 1860 nM
- TGI (OVCAR-8 ovarian): 3.71 µM
- GI50 (MOLT-4 leukemia): 3.26 µM
- TGI (MOLT-4 leukemia): > 100 µM
- GI50 (NCI-H460 lung): 2680 nM
- TGI (NCI-H460 lung): 6.25 µM
- GI50 (T-47D breast): 1830 nM
- TGI (T-47D breast): 5.97 µM
- GI50 (TK-10 renal): 9.16 µM
- TGI (TK-10 renal): 32.3 µM
- GI50 (OVCAR-3 ovarian): 1810 nM
- TGI (OVCAR-3 ovarian): 3.53 µM
- GI50 (A549 NSCLC): 2080 nM
- TGI (A549 NSCLC): 5.09 µM
- GI50 (MALME-3M melanoma): 1740 nM
- TGI (MALME-3M melanoma): 3.37 µM
- GI50 (KM12 colon): 3.15 µM
- TGI (KM12 colon): > 100 µM
- GI50 (RPMI-8226 leukemia): 3.91 µM
- TGI (RPMI-8226 leukemia): > 100 µM
- GI50 (UO-31 renal): 3.3 µM
- TGI (UO-31 renal): 16.3 µM
- GI50 (ACHN renal): 2900 nM
- TGI (ACHN renal): 8.71 µM
- GI50 (COLO 205 colon): 3.1 µM
- TGI (COLO 205 colon): > 100 µM
